Patent US8389768B2, “Methods and compositions comprising novel cationic lipids” (The University of North Carolina at Chapel Hill, priority 2008, dated 2013)
Read-outs that look alike come from different tables or passages of the source.

What was measured:
[1] = tested on: H460 cells; experiment: Flow cytometry with PI staining (apoptosis rate) after free lipid; assay type: cell-based, human; settings: 10 μM lipid, 3 h
Text: There was no statistically significant difference between the cytotoxicities of DSGLA and lipid 1.

[2] = tested on: ERK1/2; experiment: ERK1/2 activation in dendritic cells; assay type: cell-based; settings: low concentration (1 μM)
Text: Total ERK1/2 expression remained unperturbed under all conditions.

[3] = tested on: H460 cells; experiment: Chemosensitization study with cisplatin (MTT assay); assay type: cell-based, human; settings: 48 h
Experimental: (§1) The cell viability values shown are the averages of triplicate experiments performed on the same day. […] Data=mean, n=3.
H460 cells (1×10^4 per well) were seeded into 12-well plates. Cells were incubated with different lipids at 10 μM and cisplatin (Sigma-Aldrich, St. Louis, Mo.) at different concentrations in serum-containing medium at 37° C. Cell viability was detected by the MTT assay 48 h later.
(§2) The cytotoxic effects of the three novel lipids at various concentrations were assessed in H460 cells after exposure to lipids 1-3 and DOTAP for 48 h using the MTT assay (FIG. 5A). […] To assess the chemo-sensitization ability of these lipids to anticancer drugs such as cisplatin, H460 cells were exposed to each of these agents for 48 h, alone and in combination with cisplatin.

[4] = tested on: B16F10 melanoma cells; experiment: Intracellular uptake of fluorescently-labeled siRNA in B16F10 cells; assay type: cell-based; settings: 4 h, CY3-siRNA, lipid as cationic lipid of LPD-PEG / LPD-PEG-AA, vs DOTAP, AA vs no AA
Experimental: FIG. 9 presents fluorescence photographs of B16F10 cells after a 4 h treatment with 3′ CY3-labeled siRNA against an irrelevant target in LPD-PEG or LPD-PEG-AA nanoparticles formulated with the cationic lipid DSAA, DSGLA, or DOTAP.
We post inserted PEGylated lipids onto a LPD formulation, a nonviral vector developed in our lab as a nanocarrier for siRNA delivery, to increase the serum stability. In addition, we also tethered anisamide, a compound that specifically binds to the sigma receptor, to the distal end of PEG as a targeting ligand. […] Furthermore, the fluorescence signal in the cells treated with LPD-PEG-AA was much stronger than that of cells treated with LPD-PEG.

[5] = tested on: B16F10 cells (that stably express luciferase); experiment: In vitro luciferase gene silencing; assay type: cell-based; settings: 24 h, 37° C., lipid as cationic lipid of the LPD formulation, vs DOTAP and DSGLA, AA vs no AA
Text: We examined the gene silencing effect by siRNA in different compositions. […] Furthermore, the silencing effect in the cells treated with LPD-PEG-AA was much stronger than that of cells treated with LPD-PEG.

[6] = tested on: H460 cells; experiment: In vitro transfection (pCMV-Luc luciferase reporter gene delivery); assay type: cell-based, human; settings: presence of serum, cholesterol co-lipid 1:1, pCMV-Luc, lipid/DNA charge ratios 8:1 to 1:1
Experimental: RLU/pgram of protein was plotted against the lipid to DNA (+/−) charge ratios. The transfection efficiencies of the lipids were compared to that of commercially available N-(2,3-dioleoyloxy) propyl)-N,N,N-trimethylammonium chloride (DOTAP) and Lipofectamine™ 2000. The transfection values shown are the average of triplicate experiments performed on the same day.
H460 human large-cell lung carcinoma cells were seeded at a density of 20,000 cells per well in a 96-well plate 18-24 h prior to the transfection. Plasmid DNA (0.3 μg) was complexed with varying amounts of lipids (0.9-7.2 nmol) in plain RPMI medium (total volume of 100 μL) for 20 min. The charge ratios were varied from 1:1 to 8:1 (+/−) over these ranges of the lipids. The complexes were then added to the cells. After 3 h of incubation, 100 μL of RPMI with 20% FBS was added to the cells. The reporter gene activity was estimated after 24 h. The cells were washed twice with phosphate-buffered saline (PBS, 100 μL each) and lysed in 100 μL of lysis buffer (0.1 M Tris-HCl, 2 mM EDTA, 0.5% Triton X100, pH 7.8). Care was taken to ensure complete lysis. The cell lysate was then centrifuged at 14,000 rpm for 5 min. […] The protein concentration within the cellular lysates was quantified with the BSA standards from the Micro BSA™ Protein assay kit as supplied by Pierce Chemical Company (Rockford, Ill.). […]

[7] = tested on: H460 cells; experiment: Cellular growth inhibition study (MTT assay)
Experimental: as §1
H460 cells (1×10^4 per well) were seeded into 12-well plates. Cells were treated with different lipids at various concentrations in serum-containing medium at 37° C. for 72 h. Cell viability was then detected by an MTT assay. Briefly, 100 μL of the MTT solution (15 mg in 50 mL of PBS) was added to each well, and the cells were incubated for 4 h at 37° C. The medium was removed, and the formazan crystals formed in the cells were dissolved in DMSO. Absorbance at 570 nm was measured in an Ultramark Microplate Imaging System. The data are expressed as the percent of viable cells compared to the untreated control cells.
as §2

## CCCCCCCC/C=C\CCCCCCCC(=O)OCC(C[N+](C)(C)C)OC(=O)CCCCCCC/C=C\CCCCCCCC.[Cl-] (stereo not drawn) [DOTAP]
[1]
  apoptosis rate (flow cytometry with PI staining): 4.7±0.5%
[2]
  ERK1/2 activation: increased ERK1/2 activation
[3]; lipid 10 μM
  sensitization of cells to cisplatin: not

## CCCCCCCCCCCCCCCCCC[N+](C)(CCCCCCCCCCCCCCCCCC)CCNC(=O)[C@@H](N)CCCNC(=N)N [DSAA, N-methyl-N-(2-(arginoylamino)ethyl)-N,N-Dioctadecyl aminium chloride]
[4]
  uptake of fluorescently-labeled siRNA (fluorescence photographs): much greater
[5]
  silencing effect of anti-luciferase siRNA: greater

## N.N.[Cl][Pt][Cl] [cisplatin]
[3]; cisplatin alone, read-out: IC50 of cisplatin
  IC50: ~12 µM
[3]; with lipids 1-3 (10 μM), read-out: IC50 of cisplatin after treatment with lipids 1-3
  IC50: 3.5 µM

## N,N-di-myristoyl-N-methyl-N-2[N′—(N^6-guanidino-L-lysinyl)]aminoethyl ammonium chloride [lipid 1]
[1]
  apoptosis rate (flow cytometry with PI staining): 10.4±3.0%
[6]
  transfection efficiency (luciferase activity, RLU per μg protein): comparable to that of DOTAP and Lipofectamine 2000
[7]
  EC50: ~16 µM

## N,N-dimyristoyl-N-methyl-N-2[N′—(N2, N6-di-guanidino-L-lysinyl)]aminoethyl ammonium chloride [lipid 3]
[6]
  transfection efficiency (luciferase activity, RLU per μg protein): comparable to that of DOTAP and Lipofectamine 2000
[7]; 20 μM concentration of the corresponding lipids
  order of cytotoxicity: lipid 1>lipid 3>lipid 2>DOTAP
